Where two headings read alike, the source gives them in different places.
Experiment: Proof-of-concept trial: entry PK study, deferiprone in serum after the first oral dose
Format: in vivo, human
Details: for Cmax: human, serum
Text: Eligible for enrollment were volunteers of both genders, between 18 and 60 years old, healthy or HIV-infected with CD4 count ≥ 300/mm^3, viral load of ≥ 10,000 copies/ml, and absence of active infectious disease; AIDS-defining condition; febrile illness; liver or kidney disease; hypersensitivity to test material; and medication requirement. The protocol involved a screening visit; a pharmacokinetic and antiretroviral study requiring admission to a specialized Phase I research unit for a week of on-drug treatment, with multiple blood draws from a peripheral vein after oral intake of the first deferiprone dose, […], and at least three repeat blood draws (first stage of protocol); an off-drug observation period of eight weeks, which comprised at least two repeat visits (second stage of protocol); and an exit visit. Enrollment complied with the applicable standard-of-care specified in the ‘Clinical Guidelines for the Management of HIV & AIDS in Adults and Adolescents’, National Department of Health, Republic of South Africa. Primary parameters included safety and tolerability (e.g. vital signs, laboratory variables, cardiac monitoring by ECG) and antiretroviral activity (e.g. RNA copies of HIV-1). Secondary parameters included pharmacokinetic variables (e.g. peak serum concentration) in serum, drawn from a peripheral vein at fixed times (0, 0.5, 1, 1.5, 2, 3, 4, 6, 9, 12) after the ingestion of the first dose on Day 1 of the study. The concentration of the nonconjugated, chelation-competent form of deferiprone in serum was determined by UV detection at 280 nm, after separation via reversed-phase HPLC under isocratic conditions. The lower limit of deferiprone quantitation was 1.466 μM, or 0.204 μg/ml. HIV-1 RNA was measured as described and used as log10-transformed parameter in all calculations.

## Cc1c(O)c(=O)ccn1C [deferiprone, 3-hydroxy-1,2-dimethylpyridin-4-one]
99 mg group
  subjects with serum cmax concentrations above the threshold (150 μM): 4 of 7
150 mg group
  subjects with serum cmax concentrations above the threshold (150 μM): 3 of 4
Both sexes, oral, approximation from pharmacokinetic, viral load and tolerability findings, read-out: serum cmax an effective and tolerable regimen may have to achieve
  Cmax: 150 to 275 µM
Both sexes, po, 33 mg/kg, 99 mg group, first oral dose 33 mg/kg, read-out: cmax, range within group
  Cmax: 53 to 314 µM
Both sexes, po, 50 mg/kg, 150 mg group, first oral dose 50 mg/kg, read-out: cmax, range within group
  Cmax: 128 to 285 µM
oral, 99 mg, Subject 2, 99 mg group, read-out: cmax
  Cmax: 314 µM
oral, 150 mg, Subject 19, 150 mg group, read-out: cmax
  Cmax: 128 µM
oral, 150 mg, Subject 22, 150 mg group, read-out: cmax
  Cmax: 285 µM

Source: PMC4871512, “Drug-Based Lead Discovery: The Novel Ablative Antiretroviral Profile of Deferiprone in HIV-1-Infected Cells and in HIV-Infected Treatment-Naive Subjects of a Double-Blind, Placebo-Controlled, Randomized Exploratory Trial” (PLoS ONE, 2016)
